Paper PMC11742723, “The clinical-stage drug BTZ-043 accumulates in murine tuberculosis lesions and efficiently acts against Mycobacterium tuberculosis” (Nature Communications, 2025)
Values joined by “and” are separate entries in the source; they are usually repeats but may differ in a detail not shown here. Identical values can stand only once.

Experiments:
Mtb H37Rv [1] = test: BTZ-043 dose escalation study in Mtb-infected BALB/c mice (pulmonary CFU); assay type: in vivo, Mycobacterium tuberculosis; details: 25 mg/kg INH, individual female mice
Mtb H37Rv [2] = test: BTZ-043 dose-fractionation study in Mtb-infected BALB/c mice (lung CFU); assay type: in vivo, Mycobacterium tuberculosis; details: 10 mg /kg INH; 6 weeks of treatment; individual female mice
Caco-2 = details: cited from earlier work
[3] = cited from earlier work
[4] = In vitro permeability assay in Caco-2 monolayers; details: human; for Papp at 120 min, 25 µg/mL / Papp at 120 min, 40 µg/mL: Caco-2, Mean Papp, n=3; for Papp at 120 min, 25 µg/mL: Caco-2, 25 µg/mL; for Papp at 120 min, 40 µg/mL: Caco-2, 40 µg/mL
Caco-2 cell monolayers = test: In vitro permeability assay in Caco-2 monolayers; details: for Concentration: replicates 1-3

Q: What does the source list for `NNC(=O)c1ccncc1` [INH, isoniazid, reference compound]?
A: pulmonary CFU counts / mouse (Mtb H37Rv [1]; 4 weeks of treatment): 306600 CFU counts / mouse and 698438 CFU counts / mouse and 504563 CFU counts / mouse and 274286 CFU counts / mouse and 298200 CFU counts / mouse and 595125 CFU counts / mouse; pulmonary CFU counts / mouse (Mtb H37Rv [1]; 6 weeks of treatment): 135000 CFU counts / mouse and 142313 CFU counts / mouse and 207692 CFU counts / mouse and 103500 CFU counts / mouse and 144000 CFU counts / mouse and 145313 CFU counts / mouse; pulmonary CFU counts / mouse (Mtb H37Rv [1]; 8 weeks of treatment): 40714 CFU counts / mouse and 48086 CFU counts / mouse and 100000 CFU counts / mouse and 45000 CFU counts / mouse and 32560 CFU counts / mouse and 144000 CFU counts / mouse; pulmonary CFU counts / mouse (Mtb H37Rv [2]): 251 CFU counts / mouse (2×) and 876 CFU counts / mouse and 1751 CFU counts / mouse

Q: With `NC(=O)c1cnccn1` [PZA, pyrazinamide] as the compound, how does the “Papp (AB)” value (Caco-2) read?
A: The value was 70.4 10^−6 cm/s.

Q: What about the “Papp (BA)” value (Caco-2) of the same compound?
A: The value was 37.1 10^−6 cm/s.

Q: What about the “penetration into centrally necrotizing granulomas” value [3] of the same compound?
A: The value was “readily penetrates centrally necrotizing granulomas”.

Q: What about the Papp A→B at 120 min ([4]; Caco-2) of the same compound?
A: The Papp A→B at 120 min was 49.7 to 61 ×10⁻⁶ cm/s.

Q: And the Papp B→A at 120 min ([4]; Caco-2)?
A: Its Papp B→A at 120 min is 35 to 39.2 ×10⁻⁶ cm/s.

Q: What about the efflux ratio at 120 min, 25 µg/mL ([4]; Caco-2) of the same compound?
A: Its efflux ratio at 120 min, 25 µg/mL is 0.79.

Q: What about the efflux ratio at 120 min, 40 µg/mL ([4]; Caco-2) of the same compound?
A: Its efflux ratio at 120 min, 40 µg/mL is 0.57.

Q: What about the Papp at 120 min, 25 µg/mL ([4]; direction AB) of the same compound?
A: The Papp at 120 min, 25 µg/mL was 49.7 ×10⁻⁶ cm/s.

Q: And the Papp at 120 min, 25 µg/mL ([4]; direction BA)?
A: The Papp at 120 min, 25 µg/mL was 39.2 ×10⁻⁶ cm/s.

Q: And the Papp at 120 min, 40 µg/mL ([4]; direction AB)?
A: Its Papp at 120 min, 40 µg/mL is 61 ×10⁻⁶ cm/s.

Q: And the Papp at 120 min, 40 µg/mL ([4]; direction BA)?
A: Its Papp at 120 min, 40 µg/mL is 35 ×10⁻⁶ cm/s.

Q: And the permeability classification (Caco-2 cell monolayers; Caco-2)?
A: The permeability classification was “highly permeable drug”.

Q: And the Concentration (Caco-2 cell monolayers; PZA 25 μg mL^-1, direction AB, time 0 min)?
A: The Concentration was 0 ng/mL.

Q: What about the Concentration (Caco-2 cell monolayers; PZA 25 μg mL^-1, direction AB, time 10 min) of the same compound?
A: Its Concentration is 0 ng/mL and 525.202 ng/mL.

Q: What about the Concentration (Caco-2 cell monolayers; PZA 25 μg mL^-1, direction AB, time 30 min) of the same compound?
A: The Concentration was 1333.17 ng/mL and 1096.85 ng/mL and 1005.65 ng/mL.

Q: And the Concentration (Caco-2 cell monolayers; PZA 25 μg mL^-1, direction AB, time 60 min)?
A: The Concentration was 3321.25 ng/mL and 3452.37 ng/mL and 3341.43 ng/mL.

Q: And the Concentration (Caco-2 cell monolayers; PZA 25 μg mL^-1, direction AB, time 90 min)?
A: Its Concentration is 3158.86 ng/mL and 3253.04 ng/mL and 3097.63 ng/mL.

Q: What about the Concentration (Caco-2 cell monolayers; PZA 25 μg mL^-1, direction AB, time 120 min) of the same compound?
A: Its Concentration is 4030.2 ng/mL and 4138.52 ng/mL and 3490.73 ng/mL.

Q: What about the Concentration (Caco-2 cell monolayers; PZA 25 μg mL^-1, direction BA, time 0 min) of the same compound?
A: Its Concentration is 0 ng/mL.

Q: And the Concentration (Caco-2 cell monolayers; PZA 25 μg mL^-1, direction BA, time 10 min)?
A: Its Concentration is 1503.99 ng/mL and 1317.17 ng/mL and 1941.63 ng/mL.

Q: And the Concentration (Caco-2 cell monolayers; PZA 25 μg mL^-1, direction BA, time 30 min)?
A: The Concentration was 5734.38 ng/mL and 4427.73 ng/mL and 5446.92 ng/mL.

Q: What about the Concentration (Caco-2 cell monolayers; PZA 25 μg mL^-1, direction BA, time 60 min) of the same compound?
A: Its Concentration is 9786.14 ng/mL and 7994.45 ng/mL and 7975.63 ng/mL.

Q: What about the Concentration (Caco-2 cell monolayers; PZA 25 μg mL^-1, direction BA, time 90 min) of the same compound?
A: The Concentration was 11259.4 ng/mL and 8631.13 ng/mL and 9901.08 ng/mL.

Q: What about the Concentration (Caco-2 cell monolayers; PZA 25 μg mL^-1, direction BA, time 120 min) of the same compound?
A: Its Concentration is 13405.8 ng/mL and 11006.7 ng/mL and 13558.7 ng/mL.

Q: And the Concentration (Caco-2 cell monolayers; PZA 40 μg mL^-1, direction AB, time 0 min)?
A: The Concentration was 0 ng/mL.

Q: What about the Concentration (Caco-2 cell monolayers; PZA 40 μg mL^-1, direction AB, time 10 min) of the same compound?
A: The Concentration was 1048.64 ng/mL and 287.742 ng/mL and 2327.22 ng/mL.

Q: And the Concentration (Caco-2 cell monolayers; PZA 40 μg mL^-1, direction AB, time 30 min)?
A: Its Concentration is 1430.93 ng/mL and 3432 ng/mL and 3592.69 ng/mL.

Q: And the Concentration (Caco-2 cell monolayers; PZA 40 μg mL^-1, direction AB, time 60 min)?
A: Its Concentration is 4853.22 ng/mL and 4349.7 ng/mL and 4275.28 ng/mL.

Q: And the Concentration (Caco-2 cell monolayers; PZA 40 μg mL^-1, direction AB, time 90 min)?
A: The Concentration was 5770.39 ng/mL and 5601.9 ng/mL and 5436.88 ng/mL.

Q: What about the Concentration (Caco-2 cell monolayers; PZA 40 μg mL^-1, direction AB, time 120 min) of the same compound?
A: Its Concentration is 4977.56 ng/mL and 4113.08 ng/mL and 4440.77 ng/mL.

Q: What about the Concentration (Caco-2 cell monolayers; PZA 40 μg mL^-1, direction BA, time 0 min) of the same compound?
A: Its Concentration is 4045.86 ng/mL and 115.41 ng/mL and 340.993 ng/mL.

Q: And the Concentration (Caco-2 cell monolayers; PZA 40 μg mL^-1, direction BA, time 10 min)?
A: Its Concentration is 3969.46 ng/mL and 1843.77 ng/mL and 2669.48 ng/mL.

Q: What about the Concentration (Caco-2 cell monolayers; PZA 40 μg mL^-1, direction BA, time 30 min) of the same compound?
A: Its Concentration is 5459.68 ng/mL and 4472.97 ng/mL and 5086.94 ng/mL.

Q: And the Concentration (Caco-2 cell monolayers; PZA 40 μg mL^-1, direction BA, time 60 min)?
A: Its Concentration is 9734.39 ng/mL and 8339.56 ng/mL and 9591.97 ng/mL.

Q: What about the Concentration (Caco-2 cell monolayers; PZA 40 μg mL^-1, direction BA, time 90 min) of the same compound?
A: The Concentration was 11611.6 ng/mL and 10257.1 ng/mL and 12377.9 ng/mL.

Q: And the Concentration (Caco-2 cell monolayers; PZA 40 μg mL^-1, direction BA, time 120 min)?
A: The Concentration was 12904.2 ng/mL and 13264.5 ng/mL and 15050 ng/mL.

Q: And the “Calculated Amount” value (Caco-2 cell monolayers; PZA (25 µg mL^-1), direction AB, compartment api, time 0 min)?
A: Its value is 20066.1 and 22292.2 and 24678.

Q: And the “Calculated Amount” value (Caco-2 cell monolayers; PZA (25 µg mL^-1), direction AB, compartment api, time 120 min)?
A: The value was 10717.9 and 11820.9 and 10695.5.

Q: What about the “Calculated Amount” value (Caco-2 cell monolayers; PZA (25 µg mL^-1), direction AB, compartment baso, time 0 min) of the same compound?
A: Its value is 0.

Q: And the “Calculated Amount” value (Caco-2 cell monolayers; PZA (25 µg mL^-1), direction AB, compartment baso, time 30 min)?
A: The value was 1096.85 and 1005.65.

Q: And the “Calculated Amount” value (Caco-2 cell monolayers; PZA (25 µg mL^-1), direction AB, compartment baso, time 60 min)?
A: Its value is 3321.25 and 3452.37 and 3341.43.

Q: What about the “Calculated Amount” value (Caco-2 cell monolayers; PZA (25 µg mL^-1), direction AB, compartment baso, time 90 min) of the same compound?
A: Its value is 3158.86 and 3253.04 and 3097.63.

Q: And the “Calculated Amount” value (Caco-2 cell monolayers; PZA (25 µg mL^-1), direction AB, compartment baso, time 120 min)?
A: The value was 4030.2 and 4138.52 and 3490.73.

Q: And the “Calculated Amount” value (Caco-2 cell monolayers; PZA (25 µg mL^-1), direction BA, compartment api, time 0 min)?
A: The value was 0.

Q: What about the “Calculated Amount” value (Caco-2 cell monolayers; PZA (25 µg mL^-1), direction BA, compartment api, time 10 min) of the same compound?
A: Its value is 1503.99 and 1317.17 and 1941.63.

Q: What about the “Calculated Amount” value (Caco-2 cell monolayers; PZA (25 µg mL^-1), direction BA, compartment api, time 30 min) of the same compound?
A: Its value is 5734.38 and 4427.73 and 5446.92.

Q: What about the “Calculated Amount” value (Caco-2 cell monolayers; PZA (25 µg mL^-1), direction BA, compartment api, time 60 min) of the same compound?
A: The value was 9786.14 and 7994.45 and 7975.63.

Q: And the “Calculated Amount” value (Caco-2 cell monolayers; PZA (25 µg mL^-1), direction BA, compartment api, time 90 min)?
A: Its value is 11259.4 and 8631.13 and 9901.08.

Q: What about the “Calculated Amount” value (Caco-2 cell monolayers; PZA (25 µg mL^-1), direction BA, compartment api, time 120 min) of the same compound?
A: Its value is 13405.8 and 11006.7 and 13558.7.

Q: What about the “Calculated Amount” value (Caco-2 cell monolayers; PZA (25 µg mL^-1), direction BA, compartment baso, time 120 min) of the same compound?
A: Its value is 22133.4.

Q: What about the “Calculated Amount” value (Caco-2 cell monolayers; PZA (40 µg mL^-1), direction AB, compartment api, time 120 min) of the same compound?
A: Its value is 15162.6 and 15570.7 and 14836.3.

Q: What about the “Calculated Amount” value (Caco-2 cell monolayers; PZA (40 µg mL^-1), direction BA, compartment baso, time 120 min) of the same compound?
A: The value was 27713.4 and 29783.3 and 27759.2.

Q: Which “penetration into the cellular rim and necrotic center” value [3] does the source give for `CO[C@H]1/C=C/O[C@@]2(C)Oc3c(C)c(O)c4c(O)c(c(/C=N/N5CCN(C)CC5)c(O)c4c3C2=O)NC(=O)/C(C)=C\C=C\[C@H](C)[C@H](O)[C@@H](C)[C@@H](O)[C@@H](C)[C@H](OC(C)=O)[C@@H]1C` [RIF, rifampicin] here?
A: Its value is “at least some penetration”.

Q: For `CC(C)=CCC/C(C)=C/CNCCNC1C2CC3CC(C2)CC1C3` (stereo not shown) [SQ109], which “distribution in centrally necrotizing lesions by MALDI imaging” value ([3]; in vivo) is on record?
A: Its value is “strong signals in the cellular rim of centrally necrotizing lesions but only poor diffusion into the avascular caseum”.

Q: For `CC(C)/N=c1\cc2n(-c3ccc(Cl)cc3)c3ccccc3nc-2cc1Nc1ccc(Cl)cc1` [clofazimine], which “Papp (AB)” value (Caco-2) is on record?
A: The value was 0.17 10^−6 cm/s.

Q: And the “Papp (BA)” value (Caco-2)?
A: Its value is 0.18 10^−6 cm/s.

Q: What about the “penetration into centrally necrotizing granulomas” value [3] of the same compound?
A: The value was “only very limited penetration”.
